Assays:
Assay in all cases: relative viability (nuclei count vs DMSO), 5 days (fraction); higher = more cells survive
Trametinib + Vorinostat = compound: CC(=O)Nc1cccc(-n2c(=O)n(C3CC3)c(=O)c3c(Nc4ccc(I)cc4F)n(C)c(=O)c(C)c32)c1 [Trametinib] + O=C(CCCCCCC(=O)Nc1ccccc1)NO [Vorinostat] (partner 1 µM)
Summary of the method: (§1)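 Relative viability divides the nuclei count in treated wells by that in vehicle wells. Lung cancer cell lines were seeded in 1536-well plates, dosed by pin tool the next day, and fixed and stained after 5 days in one step with final 0.05% Triton X-100, 1% formaldehyde and 1 ug/ml Hoechst. Dosing was a single drug or a fixed anchor-drug dose plus five library-drug doses (not always all listed) in √10 steps, and values are medians of duplicate plates imaged at 4×.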

[1] = compound: CN1C=C(C2=CC=CC=C21)/C=C\3/C4=C(C=CC=N4)NC3=O + Nc1nc2[nH]cc(CCc3ccc(C(=O)N[C@@H](CCC(=O)O)C(=O)O)cc3)c2c(=O)[nH]1 [Pemetrexed] (partner 0.2 µM)
Summary of the method: as §1

Trametinib + Luminespib = compound: CC(=O)Nc1cccc(-n2c(=O)n(C3CC3)c(=O)c3c(Nc4ccc(I)cc4F)n(C)c(=O)c(C)c32)c1 [Trametinib] + CCNC(=O)c1noc(-c2cc(C(C)C)c(O)cc2O)c1-c1ccc(CN2CCOCC2)cc1 [Luminespib] (partner 0.01 µM)
Summary of the method: as §1

[2] = compound: CN1C=C(C2=CC=CC=C21)/C=C\3/C4=C(C=CC=N4)NC3=O
Summary of the method: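 Five library-drug doses, separated by factors of √10, were pinned into 1536-well plates holding lung cancer cell lines after an overnight stay at 37 °C. Cells were fixed, permeabilised and Hoechst-stained in one step after 5 days without medium change, then imaged at 4×. Viability compares treated-well with vehicle-well nuclei, counted in MetaXpress, as a median across plates. Passing plates had control CV below 25% and at least one doubling.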

| Cell Line | relative viability (Trametinib + Vorinostat; first compound 0.0025 µM) | relative viability (Trametinib + Vorinostat; first compound 0.007906 µM) | relative viability (Trametinib + Vorinostat; first compound 0.025 µM) | relative viability (Trametinib + Vorinostat; first compound 0.07906 µM) | relative viability (Trametinib + Vorinostat; first compound 0.25 µM) | relative viability ([1]; first compound 0.02 µM) | relative viability ([1]; first compound 0.06325 µM) | relative viability ([1]; first compound 0.6325 µM) | relative viability ([1]; first compound 2 µM) | relative viability (Trametinib + Luminespib; first compound 0.0025 µM) | relative viability (Trametinib + Luminespib; first compound 0.007906 µM) | relative viability (Trametinib + Luminespib; first compound 0.025 µM) | relative viability (Trametinib + Luminespib; first compound 0.07906 µM) | relative viability (Trametinib + Luminespib; first compound 0.25 µM) | relative viability ([2]; 0.02 µM) | relative viability ([2]; 0.06325 µM) | relative viability ([2]; 0.2 µM) | relative viability ([2]; 0.6325 µM) | relative viability ([2]; 2 µM) | relative viability ([1]; first compound 0.2 µM) |
| --- | --- | --- | --- | --- | --- | --- | --- | --- | --- | --- | --- | --- | --- | --- | --- | --- | --- | --- | --- | --- |
| NCI-H2023 | 0.683 | 0.477 | 0.472 | 0.541 | 0.136 | 0.274 | 0.171 | 0.25 | 0.2 | 0.582 | 0.403 | 0.51 | 0.575 | 0.197 | 1.01 | 0.962 | 0.768 | 0.945 | 0.898 | – |
| NCI-H1437 | 0.813 | 0.642 | 0.516 | 0.447 | 0.377 | 0.305 | 0.294 | 0.343 | 0.335 | 1.12 | 0.923 | 0.709 | 0.627 | 0.602 | 1.06 | 0.998 | 0.882 | 1.05 | 1.04 | 0.344 |
| BEN | 0.62 | 0.57 | 0.49 | 0.57 | 0.624 | 0.715 | 0.847 | 0.731 | 0.734 | 0.269 | 0.374 | 0.154 | 0.379 | 0.377 | 0.863 | 0.872 | 0.701 | 0.755 | 1.05 | 0.613 |
| LXF-289 | 0.711 | 0.587 | 0.538 | 0.529 | 0.55 | 0.925 | 0.913 | 0.881 | 0.974 | 0.616 | 0.642 | 0.507 | 0.491 | 0.351 | 0.979 | 1 | 0.976 | 1 | 1.03 | 0.928 |
| NCI-H358 | 0.367 | 0.27 | 0.266 | 0.205 | 0.154 | 0.172 | 0.15 | 0.172 | 0.164 | 0.264 | 0.18 | 0.132 | 0.107 | 0.11 | 0.907 | 0.931 | 0.916 | 0.891 | 0.938 | 0.167 |
| NCI-H1993 | 0.681 | 0.553 | 0.339 | 0.576 | 0.304 | 0.564 | 0.515 | 0.457 | 0.534 | 0.74 | 0.693 | 0.749 | 0.528 | 0.578 | 0.927 | 0.84 | 0.825 | 0.671 | 0.814 | 0.641 |
| LOU-NH91 | 0.893 | 0.802 | 0.766 | 0.809 | 0.411 | 0.368 | 0.387 | 0.348 | 0.372 | 0.348 | 0.365 | 0.278 | 0.305 | 0.279 | 0.902 | 0.825 | 0.844 | 0.856 | 0.95 | 0.365 |
| NCI-H1975 | 0.643 | 0.542 | 0.48 | 0.456 | 0.351 | 0.265 | 0.28 | 0.283 | 0.264 | 0.207 | 0.177 | 0.155 | 0.183 | 0.171 | 1.03 | 0.898 | 0.887 | 0.845 | 0.677 | 0.3 |
| PC-3 [JPC-3] | 0.82 | 0.722 | 0.557 | – | 0.53 | 0.846 | 1.05 | 0.8 | 0.79 | 0.656 | 0.574 | 0.385 | 0.405 | 0.396 | 1.03 | 1.02 | 0.859 | 0.975 | 0.989 | 1.07 |
| NCI-H2126 | 0.701 | 0.514 | 0.353 | 0.6 | 0.446 | 0.694 | 0.62 | 0.669 | 0.594 | 0.871 | 0.754 | 0.509 | 0.731 | 0.564 | 0.965 | 0.993 | 0.885 | 1.01 | 0.955 | 0.674 |
| LU99A | 0.546 | 0.503 | 0.291 | 0.397 | 0.254 | 0.156 | 0.182 | 0.173 | 0.186 | 0.297 | 0.241 | 0.187 | 0.189 | 0.151 | 0.983 | 0.845 | 0.909 | 0.937 | 0.789 | 0.176 |
| NCI-H23 | 0.501 | 0.537 | 0.277 | 0.323 | 0.126 | 0.678 | 0.598 | 0.788 | 0.654 | 0.234 | 0.185 | 0.17 | 0.213 | 0.221 | 0.802 | 0.849 | 0.685 | 1.03 | 0.986 | 0.576 |
| PC-14 | 0.781 | 0.599 | 0.535 | 0.438 | 0.0917 | 0.141 | 0.137 | 0.143 | 0.118 | 0.125 | 0.147 | 0.127 | 0.152 | 0.147 | 0.944 | 0.943 | 0.926 | 1.01 | 1.05 | 0.145 |

Reference: the supplement of paper PMC10307832
